Results from patent US20210267203A1, “PESTICIDALLY ACTIVE AZOLE-AMIDE COMPOUNDS” (SYNGENTA PARTICIPATIONS AG, priority 2018, published 2021).

Legend:
Assay type in all cases: in vivo
[1] = tested on: Myzus persicae (Green Peach Aphid); experiment: Example B8: Myzus persicae (green peach aphid), intrinsic activity; conditions: 120 h, test rate 12 ppm, sucrose solution, 24-well, 5 days after infestation
Excerpt: Example B8: Myzus persicae (Green Peach Aphid), Intrinsic Activity
Test compounds prepared from 10,000 ppm DMSO stock solutions were applied by pipette into 24-well microtiter plates and mixed with sucrose solution. The plates were closed with a stretched Parafilm. A plastic stencil with 24 holes was placed onto the plate and infested pea seedlings were placed directly on the Parafilm. The infested plate was closed with a gel blotting paper and another plastic stencil and then turned upside down. The samples were assessed for mortality 5 days after infestation.

[2] = tested on: Myzus persicae (Green Peach Aphid); experiment: Example B6: Myzus persicae (green peach aphid), feeding/contact activity; conditions: 144 h, application rate 200 ppm, 6 days after infestation
Description: Example B6: Myzus persicae (Green Peach Aphid):Feeding/Contact Activity
Sunflower leaf discs were placed onto agar in a 24-well microtiter plate and sprayed with aqueous test solutions prepared from 10,000 ppm DMSO stock solutions. After drying, the leaf discs were infested with an aphid population of mixed ages. The samples were assessed for mortality 6 days after infestation.

[3] = tested on: Euschistus heros (Neotropical Brown Stink Bug); experiment: Example B2: Euschistus heros (neotropical brown stink bug), soybean leaves sprayed, N2 nymphs; conditions: 120 h, application rate 200 ppm, 5 days after infestation, read-out: effect in at least one of the two categories (mortality or growth inhibition)
Description: Example B2: Euschistus heros (Neotropical Brown Stink Bug)
Soybean leaves on agar in 24-well microtiter plates were sprayed with aqueous test solutions prepared from 10,000 ppm DMSO stock solutions. After drying the leaves were infested with N2 nymphs. The samples were assessed for mortality and growth inhibition in comparison to untreated samples 5 days after infestation.
The following compounds gave an effect of at least 80% in at least one of the two categories (mortality or growth inhibition) at an application rate of 200 ppm: […]

[4] = tested on: Diabrotica Balteata (Corn Root Worm); experiment: Example B1: Diabrotica balteata (corn root worm), maize sprouts sprayed, L2 larvae; conditions: 96 h, application rate 200 ppm, 4 days after infestation, read-out: effect in at least one of the two categories (mortality or growth inhibition)
How it was run: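 Maize sprouts on agar sprayed with aqueous dilutions of 10,000 ppm DMSO stocks, dried, then infested with 6–10 L2 larvae per well. Mortality and growth inhibition scored against untreated samples 4 days after infestation; rates of 200 ppm.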

[5] = tested on: Spodoptera littoralis (Egyptian Cotton Leaf Worm); experiment: Example B9: Spodoptera littoralis (Egyptian cotton leaf worm), cotton leaf discs sprayed, L1 larvae; conditions: foliar, 72 h, application rate 200 ppm, 3 days after infestation
Description: Example B9: Spodoptera littoralis (Egyptian Cotton Leaf Worm)
Cotton leaf discs were placed onto agar in 24-well microtiter plates and sprayed with aqueous test solutions prepared from 10,000 ppm DMSO stock solutions. After drying the leaf discs were infested with five L1 larvae. The samples were assessed for mortality, anti-feeding effect, and growth inhibition in comparison to untreated samples 3 days after infestation. Control of Spodoptera littoralis by a test sample is given when at least one of the three categories (i.e. mortality, anti-feedant effect, and growth inhibition) is higher than the untreated sample.

[6] = tested on: Myzus persicae (Green Peach Aphid); experiment: Example B13: activity against Myzus persicae (green peach aphid), 96-well sucrose solution; conditions: 120 h, application rate 50 ppm, 5 days after infestation
Excerpt: Example B13: Activity Against Myzus persicae (Green Peach Aphid)
Test compounds prepared from 10,000 ppm DMSO stock solutions were applied by a liquid handling robot into 96-well microtiter plates and mixed with a sucrose solution. Parafilm was stretched over the 96-well microtiter plate and a plastic stencil with 96 holes was placed onto the plate. Aphids were sieved into the wells directly onto the Parafilm. The infested plates were closed with a gel blotting card and a second plastic stencil and then turned upside down. The samples were assessed for mortality 5 days after infestation.

[7] = tested on: Plutella xylostella (Diamondback Moth); experiment: Example B14: activity against Plutella xylostella (diamondback moth), 96-well artificial diet; conditions: 216 h, application rate 500 ppm, 9 days after infestation
How it was run: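 Diet in 96-well plates was treated with aqueous dilutions of 10,000 ppm DMSO stocks, dried, and infested with 30 eggs per well via a netted lid; hatching L1 larvae fed on the diet. Mortality scored 9 days after infestation.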

[8] = tested on: Plutella xylostella (Diamond Back Moth); experiment: Example B5: Plutella xylostella (diamond back moth), artificial diet, 24-well, eggs; conditions: 192 h, application rate 200 ppm, 8 days after infestation, read-out: effect in at least one of the two categories (mortality or growth inhibition)
How it was run: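 Artificial diet in 24-well plates treated with aqueous dilutions of 10,000 ppm DMSO stocks, dried, then infested with Plutella eggs. Mortality and growth inhibition scored against untreated samples 8 days after infestation; activity rated at 200 ppm application rate.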

[9] = tested on: Spodoptera littoralis (Egyptian Cotton Leaf Worm); experiment: Example B10: Spodoptera littoralis (Egyptian cotton leaf worm), uptake by lettuce roots from agar, eggs; conditions: 144 h, test rate 12.5 ppm, lettuce root uptake, 6 days after infestation, read-out: effect in at least one of the three categories (mortality, anti-feeding, or growth inhibition)
Excerpt: Example B10: Spodoptera littoralis (Egyptian Cotton Leaf Worm)
Test compounds were applied by pipette from 10,000 ppm DMSO stock solutions into 24-well plates and mixed with agar. Lettuce seeds were placed onto the agar and the multi well plate was closed by another plate which contained also agar. After 7 days the compound was absorbed by the roots and the lettuce grew into the lid plate. The lettuce leaves were then cut off into the lid plate. Spodoptera eggs were pipetted through a plastic stencil onto a humid gel blotting paper and the lid plate was closed with it. The samples were assessed for mortality, anti-feedant effect and growth inhibition in comparison to untreated samples 6 days after infestation.
The following compounds gave an effect of at least 80% in at least one of the three categories (mortality, anti-feeding, or growth inhibition) at a test rate of 12.5 ppm: […]

[10] = tested on: Chilo suppressalis (Striped Rice Stemborer); experiment: Example B4: Chilo suppressalis (striped rice stemborer), artificial diet, L2 larvae; conditions: 144 h, application rate 200 ppm, 6 days after infestation
Description: Example B4: Chilo suppressalis (Striped Rice Stemborer)
24-well microtiter plates with artificial diet were treated with aqueous test solutions prepared from 10,000 ppm DMSO stock solutions by pipetting. After drying, the plates were infested with L2 larvae (6-8 per well). The samples were assessed for mortality, anti-feeding effect, and growth inhibition in comparison to untreated samples 6 days after infestation. Control of Chilo suppressalis by a test sample is given when at least one of the categories (i.e. mortality, anti-feedant effect, and growth inhibition) is higher than the untreated sample.

CC(NC(=O)c1cc(C2CC2)cc(C(F)(F)F)c1)c1ncnn1-c1ncccn1 (stereo not shown) [P24, 3-cyclopropyl-N-[1-(2-pyrimidin-2-yl-1,2,4-triazol-3-yl)ethyl]-5-(trifluoromethyl)benzamide]
≥ 80%: mortality at 12 ppm [1] | mortality at 200 ppm [2] | percent effect (mortality or growth inhibition) at 200 ppm [3] | percent effect (mortality or growth inhibition) at 200 ppm [4] | percent control (mortality, anti-feedant effect or growth inhibition) at 200 ppm [5] | mortality at 50 ppm [6] | mortality at 500 ppm [7] | percent effect (mortality or growth inhibition) at 200 ppm [8]

CC(NC(=O)c1cc(C2CC2)nc(C(F)(F)F)c1)c1ncnn1-c1ncccn1 (stereo not shown) [P54, 2-cyclopropyl-N-[1-(2-pyrimidin-2-yl-1,2,4-triazol-3-yl)ethyl]-6-(trifluoromethyl)pyridine-4-carboxamide]
≥ 80%: mortality at 12 ppm [1] | percent effect (mortality or growth inhibition) at 200 ppm [3] | percent effect (mortality or growth inhibition) at 200 ppm [4] | percent control (mortality, anti-feedant effect or growth inhibition) at 200 ppm [5] | mortality at 50 ppm [6] | mortality at 500 ppm [7] | percent effect (mortality or growth inhibition) at 200 ppm [8] | percent effect (mortality, anti-feeding or growth inhibition) at 12.5 ppm [9]

CC(c1ncnn1-c1ncccn1)N(CC1CC1)C(=O)c1cc(C2CC2)nc(C(F)(F)F)c1 (stereo not shown) [P55, 2-cyclopropyl-N-(cyclopropylmethyl)-N-[1-(2-pyrimidin-2-yl-1,2,4-triazol-3-yl)ethyl]-6-(trifluoromethyl)pyridine-4-carboxamide]
≥ 80%: mortality at 12 ppm [1] | percent effect (mortality or growth inhibition) at 200 ppm [3] | percent effect (mortality or growth inhibition) at 200 ppm [4] | mortality at 50 ppm [6] | mortality at 500 ppm [7] | percent effect (mortality or growth inhibition) at 200 ppm [8] | percent effect (mortality, anti-feeding or growth inhibition) at 12.5 ppm [9]

CC(NC(=O)c1cc(OCC(F)F)cc(C2CC2)c1)c1ncnn1-c1ncccn1 (stereo not shown) [P61, 3-cyclopropyl-5-(2,2-difluoroethoxy)-N-[1-(2-pyrimidin-2-yl-1,2,4-triazol-3-yl)ethyl]benzamide]
≥ 80%: mortality at 12 ppm [1] | mortality at 200 ppm [2] | percent effect (mortality or growth inhibition) at 200 ppm [3] | percent control (mortality, anti-feedant effect or growth inhibition) at 200 ppm [5] | percent control (mortality, anti-feedant effect or growth inhibition) at 200 ppm [10] | percent effect (mortality or growth inhibition) at 200 ppm [8]

C[C@@H](c1ncnn1-c1ncccn1)N(CC1CC1)C(=O)c1cc(C2CC2)cc(C(F)(F)F)c1 [P73, 3-cyclopropyl-N-(cyclopropylmethyl)-N-[(1S)-1-(2-pyrimidin-2-yl-1,2,4-triazol-3-yl)ethyl]-5-(trifluoromethyl)benzamide]
≥ 80%: mortality at 12 ppm [1] | mortality at 200 ppm [2] | percent effect (mortality or growth inhibition) at 200 ppm [3] | percent effect (mortality or growth inhibition) at 200 ppm [4] | percent control (mortality, anti-feedant effect or growth inhibition) at 200 ppm [5] | percent control (mortality, anti-feedant effect or growth inhibition) at 200 ppm [10] | percent effect (mortality or growth inhibition) at 200 ppm [8]

CC(NC(=O)c1cc(C(F)(F)F)cc(C(C)(C)C#N)c1)c1ncnn1-c1ccccn1 (stereo not shown) [P75, 3-(1-cyano-1-methyl-ethyl)-N-[1-[2-(2-pyridyl)-1,2,4-triazol-3-yl]ethyl]-5-(trifluoromethyl)benzamide]
≥ 80%: mortality at 12 ppm [1] | percent effect (mortality or growth inhibition) at 200 ppm [4] | percent control (mortality, anti-feedant effect or growth inhibition) at 200 ppm [5] | percent control (mortality, anti-feedant effect or growth inhibition) at 200 ppm [10] | percent effect (mortality or growth inhibition) at 200 ppm [8]

Cc1nc(C(C)NC(=O)c2cc(C(F)(F)F)cc(C(C)(C)C#N)c2)n(-c2ncc(Br)cn2)n1 (stereo not shown) [P77, N-[1-[2-(5-bromopyrimidin-2-yl)-5-methyl-1,2,4-triazol-3-yl]ethyl]-3-(1-cyano-1-methyl-ethyl)-5-(trifluoromethyl)benzamide]
≥ 80%: mortality at 12 ppm [1] | percent effect (mortality or growth inhibition) at 200 ppm [3] | percent effect (mortality or growth inhibition) at 200 ppm [4] | percent control (mortality, anti-feedant effect or growth inhibition) at 200 ppm [5] | percent control (mortality, anti-feedant effect or growth inhibition) at 200 ppm [10] | percent effect (mortality or growth inhibition) at 200 ppm [8]

Cc1nc(C(C)NC(=O)c2cc(C3CC3)cc(C(F)(F)F)c2)n(-c2ncc(Br)cn2)n1 (stereo not shown) [P80, N-[1-[2-(5-bromopyrimidin-2-yl)-5-methyl-1,2,4-triazol-3-yl]ethyl]-3-cyclopropyl-5-(trifluoromethyl)benzamide]
≥ 80%: percent effect (mortality or growth inhibition) at 200 ppm [3] | percent effect (mortality or growth inhibition) at 200 ppm [4] | percent control (mortality, anti-feedant effect or growth inhibition) at 200 ppm [5] | percent control (mortality, anti-feedant effect or growth inhibition) at 200 ppm [10] | percent effect (mortality or growth inhibition) at 200 ppm [8]

CC(NC(=O)c1cc(C2CC2)cc(C(F)(F)F)c1)c1ncnn1-c1ncc(Br)cn1 (stereo not shown) [P81, N-[1-[2-(5-bromopyrimidin-2-yl)-1,2,4-triazol-3-yl]ethyl]-3-cyclopropyl-5-(trifluoromethyl)benzamide]
≥ 80%: percent effect (mortality or growth inhibition) at 200 ppm [3] | percent effect (mortality or growth inhibition) at 200 ppm [4] | percent control (mortality, anti-feedant effect or growth inhibition) at 200 ppm [5] | percent control (mortality, anti-feedant effect or growth inhibition) at 200 ppm [10] | percent effect (mortality or growth inhibition) at 200 ppm [8]

Cc1nc(C(C)NC(=O)c2cc(C3CC3)cc(C(F)(F)F)c2)n(-c2ncccn2)n1 (stereo not shown) [P86, 3-cyclopropyl-N-[1-(5-methyl-2-pyrimidin-2-yl-1,2,4-triazol-3-yl)ethyl]-5-(trifluoromethyl)benzamide]
≥ 80%: mortality at 12 ppm [1] | percent effect (mortality or growth inhibition) at 200 ppm [3] | percent effect (mortality or growth inhibition) at 200 ppm [4] | percent control (mortality, anti-feedant effect or growth inhibition) at 200 ppm [5] | percent control (mortality, anti-feedant effect or growth inhibition) at 200 ppm [10] | percent effect (mortality or growth inhibition) at 200 ppm [8]

CC(NC(=O)c1cc(C(F)(F)F)cc(C2(C)CC2(F)F)c1)c1ncnn1-c1ncccn1 (stereo not shown) [P88, 3-(2,2-difluoro-1-methyl-cyclopropyl)-N-[1-(2-pyrimidin-2-yl-1,2,4-triazol-3-yl)ethyl]-5-(trifluoromethyl)benzamide]
≥ 80%: mortality at 12 ppm [1] | percent effect (mortality or growth inhibition) at 200 ppm [3] | percent effect (mortality or growth inhibition) at 200 ppm [4] | percent control (mortality, anti-feedant effect or growth inhibition) at 200 ppm [5] | mortality at 50 ppm [6] | percent control (mortality, anti-feedant effect or growth inhibition) at 200 ppm [10] | percent effect (mortality or growth inhibition) at 200 ppm [8]
